{
  "source": "paper PMC9901186",
  "about": "(bioRxiv, 2023)",
  "origin": "cited, not measured here",
  "test_system": "NOD1",
  "data": [
    {"compound": "CCCCCCCCCCCC(=O)N[C@H](CCC(=O)NC(CCCC(N)C(=O)O)C(=O)O)C(=O)O", "note": "(stereo partly shown) [C12-iE-DAP]", "values": [
      {"measurement": "greater activation of NOD1-dependent NF-κB reporter relative to iE-DAP", "value": "~ 100 fold"}
    ]}
  ]
}
